Patent US20230099441A1, “HETEROCYCLIC COMPOUND, APPLICATION THEREOF, AND COMPOSITION CONTAINING SAME” (GenEros Biopharma Ltd., priority 2019, published 2023)

Tests used:
[1] = system: STAT5 Y694 phosphorylation; assay: HTRF experiment: STAT5 Y694 phosphorylation in Hela cells stimulated with human interferon beta; type: cell-based; details: 2 hours pretreatment, 10 nM human interferon beta 30 minutes
Description: Example of Effect 3: HTRF Experiment
Human Interferon 3 (IFN-0) (GenScript, Cat #P01574), STAT5 Y694 phosphorylation detection kit (STAT5 phospho-Y694 kit) (Cisbio; Cat #64AT5PEG).
Hela cells (ATCC American Standard Culture Center, CCL-2) were cultured in a 96-well plate at a density of 3×10^4 cells/well with DMEM medium containing 5% fetal bovine serum and maintained at 37° C. in a humidified incubator with 5% carbon dioxide overnight. On the second day, the original DMEM medium in the 96-well plate was sucked dry, and an equal volume of medium containing different concentrations of compounds (the mother liquor of the compound prepared by dimethyl sulfoxide was diluted in the medium at the required concentration) was added for pretreatment for 2 hours, and then it was placed in an incubator at 37° C. Then human interferon beta with a final concentration of 10 nM was added to stimulate, and it was gently shaken to mix well and then placed in an incubator at 37° C. for 30 minutes.
The medium was removed, an appropriate volume of PBS was added to wash, and then it was sucked dry. Then 40 microliters of 1× Lysis Buffer was added to each well and it was stood for 30 minutes at room temperature (1 ml 1× lysate preparation: 740 μl ddH2O was added to 250 μl 4× lysate and 10 μl Blocking reagent and it was mixed thoroughly). After 30 minutes, the cells were repeatedly blown until the lysis solution was not viscous (avoiding blowing out bubbles) to achieve sufficient lysis.
After overnight incubation, the signals of 665 nm and 620 nm were detected in a multifunctional microplate reader. The calculation formula for the detection of STAT5 Y694 phosphorylation is: Ratio=[(signal 665 nm)/(signal 620 nm)]×10^4. Treatment with dimethyl sulfoxide alone was the baseline control (Ratiobase), and the human interferon β stimulation without addition of the compound was the STAT5 Y694 full phosphorylation activation control (Ratiostimulation), the inhibition rate of STAT5 Y694 phosphorylation of different samples was normalized: Inhibition rate=[1−(RatioExperiment−Ratiobase)/(Ratiostimulation−Ratiobase)]*100.

[2] = system: STAT5 Y694 phosphorylation; assay: Protein electrophoresis and blotting of STAT5 Y694 phosphorylation in Jurkat cells stimulated with human interferon beta; type: cell-based; details: for Inhibiting Ratio (0% for vehicle control): 1 hour pretreatment, 20 ng/ml human interferon beta 30 minutes, pSTAT5/GAPDH; for Example of Effect 1: Inhibiting Ability (Protein Electrophoresis and Blotting): observed pSTAT5 bands at 10 μM and 100 μM
Summary of the method: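 Serum-free Jurkat cells pretreated with compound 1 h, then stimulated with 20 ng/ml human interferon beta for 30 min at 37° C. pSTAT5 measured by western blot with chemiluminescence, normalized to GAPDH and expressed as percent of DMSO control.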

SMILES	Example of Effect 3: Inhibiting Ratio@10 μM (HTRF Experiment) [1]	Inhibiting Ratio (0% for vehicle control) ([2]; 1 μM)	Inhibiting Ratio (0% for vehicle control) ([2]; 10 μM)	Inhibiting Ratio (0% for vehicle control) ([2]; 100 μM)	Example of Effect 1: Inhibiting Ability (Protein Electrophoresis and Blotting) [2]
Nc1nc2ccccc2n1C1CCN(C(=O)Cc2ccc(C(F)(F)F)cc2)CC1 [GEN1-055, 1-(4-(2-amino-1H-benzo[d]imidazol-1-yl)piperidin-1-yl)-2-(4-(trifluoromethyl)phenyl)ethanone]	16.88%	25.0%	50.0%	89.6%	+
O=C(Cc1ccc2ncccc2c1)N1CCC(n2c(=S)[nH]c3ccccc32)CC1 [GEN1-137, 2-(quinolin-6-yl)-1-(4-(2-thio-2,3-dihydro-1H-benzo(d)imidazol-1-yl)piperidin-1-yl)ethan-1-one]	19.51%				+
O=C(C(=O)N1CCC(n2c(=O)[nH]c3cccc(C(F)(F)F)c32)CC1)c1ccc(C(F)(F)F)cc1 [GEN1-160, 1-(4-(2-oxo-7-(trifluoromethyl)-2,3-dihydro-1H-benzo[d]imidazol-1-yl)piperidin-1-yl)-2-(4-(trifluoromethyl)phenyl)1,2-dione]	10.27%				+
O=C(C[C@H]1CC[C@@H](C(F)(F)F)CC1)N1CCC(n2c(=O)[nH]c3ccccc32)CC1 [GEN1-107, (Cis)-1-(1-(2-(4-(trifluoromethyl)cyclohexyl)acetyl)piperidin-4-yl)-1H-benzo[d]imidazol-2(3H)-one]	37.09%				+
O=C(Cc1ccc2ncccc2c1)N1CCC(n2c(=O)[nH]c3cccc(C(F)(F)F)c32)CC1 [GEN1-117, 1-(1-(2-(quinolin-6-yl)acetyl)piperidin-4-yl)-7-(trifluoromethyl)-1H-benzo[d]imidazol-2(3H)-one]	89.31%				++
O=C(Cc1ccc2c(c1)OCCO2)N1CCC(n2c(=O)[nH]c3cccc(C(F)(F)F)c32)CC1 [GEN1-159, 1-(1-(2-(2,3-dihydrobenzo[b][1,4]dioxin-6-yl)acetyl)piperidin-4-yl)-7-(trifluoromethyl)-1,3-dihydro-2H-benzo[d]imidazol-2-one]	22.99%				+
O=C(Cc1c[nH]c2ccccc12)N1CCC(n2c(=O)[nH]c3cccc(C(F)(F)F)c32)CC1 [GEN1-169]	13.47%				+
O=C(C[C@H]1CC[C@H](C(F)(F)F)CC1)N1CCC(n2c(=O)[nH]c3ccccc32)CC1 [GEN1-108, (trans)-1-(1-(2-(4-(trifluoromethyl)cyclohexyl)acetyl)piperidin-4-yl)-1H-benzo[d]imidazol-2(3H)-one]	38.81%				+
O=C(Cc1ccc2ncccc2c1)N1CCC(n2c(=O)[nH]c3ccccc32)CC1 [GEN1-075, 1-(1-(2-(quinolin-6-yl)acetyl)piperidin-4-yl)-1H-benzo[d]imidazol-2(3H)-one]	10.79%				+
N#Cc1cccc2[nH]c(=O)n(C3CCN(C(=O)Cc4ccc5ncccc5c4)CC3)c12 [GEN1-151, 2-oxo-3-(1-(2-(quinolin-6-yl)acetyl)piperidin-4-yl)-2,3-dihydro-1H-benzo[d]imidazol-4-carbonitrile]	39.02%				+
O=C(Nc1ccc(C(F)(F)F)cc1)N1CCC(n2c(=O)[nH]c3cccc(C(F)(F)F)c32)CC1 [GEN1-149, 4-(2-oxo-7-(trifluoromethyl)-2,3-dihydro-1H-benzo[d]imidazol-1-yl)-N-(4-(trifluoromethyl)phenyl)piperidin-1-carboxamide]	0.49%				+
COc1ccc(CC(=O)N2CCC(n3c(=O)[nH]c4cccc(C(F)(F)F)c43)CC2)cc1OC [GEN1-168, 1-(1-(2-(3,4-dimethoxyphenyl)acetyl)piperidin-4-yl)-7-(trifluoromethyl)-1,3-dihydro-2H-benzo[d]imidazol-2-one]	47.57%				+
O=C(Cc1ccc2nccnc2c1)N1CCC(n2c(=O)[nH]c3cccc(C(F)(F)F)c32)CC1 [GEN1-140, 1-(1-(2-(quinoxalin-6-yl)acetyl)piperidin-4-yl)-7-(trifluoromethyl)-1,3-dihydro-2H-benzo[d]imidazol-2-one]	53.79%				+
CC(C)(C(=O)N1CCC(n2c(=O)[nH]c3cccc(C(F)(F)F)c32)CC1)c1ccc(C(F)(F)F)cc1 [GEN1-158, 1-(1-(2-methyl-2-(4-(trifluoromethyl)phenyl)propionyl)piperidin-4-yl)-7-(trifluoromethyl)-1H-benzo[d]imidazol-2(3H)-one]	0.16%				−
N#Cc1cccc2[nH]c(=O)n(C3CCN(C(=O)Cc4ccc(C(F)(F)F)cc4)CC3)c12 [GEN1-014, 2-oxo-3-(1-(2-(4-(trifluoromethyl)phenyl)acetyl)piperidin-4-yl)-2,3-dihydro-1H-benzo[d]imidazole-4-carbonitrile]	16.12%	14.2%	78.8%	99.1%	+
O=C(Cc1ccc2ncccc2c1)N1CCCC(n2c(=O)[nH]c3cccc(C(F)(F)F)c32)CC1 (centres unmarked) [GEN1-173, 1-(1-(2-(quinolin-6-yl)acetyl)azacycloheptane-4-yl)-7-(trifluoromethyl)-1,3-dihydro-2H-benzo[d]imidazol-2-one]	50.75%				+
Cc1[nH]c(=O)n(C2CCN(C(=O)Cc3ccc(C(F)(F)F)cc3)CC2)c1-c1ccccc1 [GEN1-166, 4-methyl-5-phenyl-1-(1-(2-(4-(trifluoromethyl)phenyl)acetyl)piperidin-4-yl)-1H-imidazole-2(3H)-one]	15.16%				+
O=C(Cc1ccc(C(F)(F)F)cc1)N1CCC(n2c(=O)[nH]c3c(N4CCOCC4)cccc32)CC1 [GEN1-154, 4-morpholino-1-(1-(2-(4-(trifluoromethyl)phenyl)acetyl)piperidin-4-yl)-1H-benzo[d]imidazol-2(3H)-one]	6.10%				−
O=C(Cc1ccc(Cl)cc1)N1CCC(n2c(=O)[nH]c3cccc(C(F)(F)F)c32)CC1 [GEN1-156, 1-(1-(2-(4-chlorophenyl)acetyl)piperidin-4-yl)-7-(trifluoromethyl)-1H-benzo[d]imidazol-2(3H)-one]	47.04%				+
O=C(Cc1ccc(C(F)(F)F)cc1)N1CCC(n2c(=O)[nH]c3ccc(C4CC4)cc32)CC1 [GEN1-089, 6-cyclopropyl-1-(1-(2-(4-(trifluoromethyl)phenyl)acetyl)piperidin-4-yl)-1H-benzo[d]imidazol-2(3H)-one]	7.83%				+
O=C(Cc1ccc(C(F)(F)F)cc1)N1CCC(n2c(=O)[nH]c3cccc(O)c32)CC1 [GEN1-016, 7-hydroxy-1-(1-(2-(4-(trifluoromethyl)phenyl)acetyl)piperidin-4-yl)-1H-benzo[d]imidazole-2 (3H)-one]	9.50%				+
O=C1CN(C2CCN(C(=O)Cc3ccc(C(F)(F)F)cc3)CC2)c2cccc(C(F)(F)F)c2N1 [GEN1-134, 8-(trifluoromethyl)-4-(1-(2-(4-(trifluoromethyl)phenyl)acetyl)piperidin-4-yl)-3,4-dihydroquinoxaline-2(1H)-one]	3.06%				−
